Assay results: US20250255874A1, “Methods for Treating Immune Thrombocytopenia By Administering (R)-2-[3-[4-Amino-3-(2-Fluoro-4-Phenoxy-Phenyl)Pyrazolo[3,4-D]Pyrimidin-1-YL]Piperidine-1-Carbonyl]-4-Methyl-4-[4-(Oxetan-3-YL)Piperazin-1-YL]Pent-2-Enentrile” (Principia Biopharma Inc., priority 2022, published 2025)

Test system: patients with relapsed/refractory immune thrombocytopenia
Assay: Phase 1/2 study (NCT03395210) Part A, safety;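 further: adverse events graded by NCI CTCAE version 4.0, with worsening of pre-existing conditions counted as adverse events, analysed in the Safety Population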
[1] = patients who initiated at all doses

CC(C)(C=C(C#N)C(=O)N1CCC[C@@H](n2nc(-c3ccc(Oc4ccccc4)cc3F)c3c(N)ncnc32)C1)N1CCN(C2COC2)CC1 [rilzabrutinib, (R)-2-[3-[4-amino-3-(2-fluoro-4-phenoxy-phenyl)pyrazolo[3,4-d]pyrimidin-1-yl]piperidine-1-carbonyl]-4-methyl-4-[4-(oxetan-3-yl)piperazin-1-yl]pent-2-enenitrile]
Fatigue, TEAEs Due to Any Cause, Grade 2 (Safety Population, N = 60): 2 (3) number of patients (percent)
Fatigue, Treatment-Related TEAEs, Any grade (Safety Population, N = 60): 6 (10) number of patients (percent)
Fatigue, Treatment-Related TEAEs, Grade 1 (Safety Population, N = 60): 5 (8) number of patients (percent)
Fatigue, Treatment-Related TEAEs, Grade 2 (Safety Population, N = 60): 1 (2) number of patients (percent)
Frequent bowel movements, TEAEs Due to Any Cause, Any grade (Safety Population, N = 60): 1 (2) number of patients (percent)
Frequent bowel movements, TEAEs Due to Any Cause, Grade 2 (Safety Population, N = 60): 1 (2) number of patients (percent)
Frequent bowel movements, Treatment-Related TEAEs, Any grade (Safety Population, N = 60): 1 (2) number of patients (percent)
Frequent bowel movements, Treatment-Related TEAEs, Grade 2 (Safety Population, N = 60): 1 (2) number of patients (percent)
Gingival bleeding, TEAEs Due to Any Cause, Any grade (Safety Population, N = 60): 3 (5) number of patients (percent)
Gingival bleeding, TEAEs Due to Any Cause, Grade 1 (Safety Population, N = 60): 3 (5) number of patients (percent)
Headache, TEAEs Due to Any Cause, Any grade (Safety Population, N = 60): 7 (12) number of patients (percent)
Headache, TEAEs Due to Any Cause, Grade 1 (Safety Population, N = 60): 7 (12) number of patients (percent)
Headache, Treatment-Related TEAEs, Any grade (Safety Population, N = 60): 2 (3) number of patients (percent)
Headache, Treatment-Related TEAEs, Grade 1 (Safety Population, N = 60): 2 (3) number of patients (percent)
Heavy menstrual bleeding, TEAEs Due to Any Cause, Any grade (Safety Population, N = 60): 2 (3) number of patients (percent)
Heavy menstrual bleeding, TEAEs Due to Any Cause, Grade 1 (Safety Population, N = 60): 1 (2) number of patients (percent)
Heavy menstrual bleeding, TEAEs Due to Any Cause, Grade 2 (Safety Population, N = 60): 1 (2) number of patients (percent)
Hot flush, TEAEs Due to Any Cause, Any grade (Safety Population, N = 60): 1 (2) number of patients (percent)
Hot flush, TEAEs Due to Any Cause, Grade 2 (Safety Population, N = 60): 1 (2) number of patients (percent)
Hot flush, Treatment-Related TEAEs, Any grade (Safety Population, N = 60): 1 (2) number of patients (percent)
Hot flush, Treatment-Related TEAEs, Grade 2 (Safety Population, N = 60): 1 (2) number of patients (percent)
Hypoesthesia, TEAEs Due to Any Cause, Any grade (Safety Population, N = 60): 1 (2) number of patients (percent)
Hypoesthesia, TEAEs Due to Any Cause, Grade 2 (Safety Population, N = 60): 1 (2) number of patients (percent)
Hypoesthesia, Treatment-Related TEAEs, Any grade (Safety Population, N = 60): 1 (2) number of patients (percent)
Hypoesthesia, Treatment-Related TEAEs, Grade 2 (Safety Population, N = 60): 1 (2) number of patients (percent)
Hypokalemia, TEAEs Due to Any Cause, Any grade (Safety Population, N = 60): 1 (2) number of patients (percent)
Hypokalemia, TEAEs Due to Any Cause, Grade 1 (Safety Population, N = 60): 1 (2) number of patients (percent)
Hypokalemia, Treatment-Related TEAEs, Any grade (Safety Population, N = 60): 1 (2) number of patients (percent)
Hypokalemia, Treatment-Related TEAEs, Grade 1 (Safety Population, N = 60): 1 (2) number of patients (percent)
Hypophosphatemia, TEAEs Due to Any Cause, Any grade (Safety Population, N = 60): 2 (3) number of patients (percent)
Hypophosphatemia, TEAEs Due to Any Cause, Grade 2 (Safety Population, N = 60): 2 (3) number of patients (percent)
Increased white blood cell count, TEAEs Due to Any Cause, Any grade (Safety Population, N = 60): 1 (2) number of patients (percent)
Increased white blood cell count, TEAEs Due to Any Cause, Grade 2 (Safety Population, N = 60): 1 (2) number of patients (percent)
Increased white blood cell count, Treatment-Related TEAEs, Any grade (Safety Population, N = 60): 1 (2) number of patients (percent)
Increased white blood cell count, Treatment-Related TEAEs, Grade 2 (Safety Population, N = 60): 1 (2) number of patients (percent)
Maculo-papular rash, TEAEs Due to Any Cause, Any grade (Safety Population, N = 60): 1 (2) number of patients (percent)
Maculo-papular rash, TEAEs Due to Any Cause, Grade 1 (Safety Population, N = 60): 1 (2) number of patients (percent)
Maculo-papular rash, Treatment-Related TEAEs, Any grade (Safety Population, N = 60): 1 (2) number of patients (percent)
Maculo-papular rash, Treatment-Related TEAEs, Grade 1 (Safety Population, N = 60): 1 (2) number of patients (percent)
Malaise, TEAEs Due to Any Cause, Any grade (Safety Population, N = 60): 1 (2) number of patients (percent)
Malaise, TEAEs Due to Any Cause, Grade 1 (Safety Population, N = 60): 1 (2) number of patients (percent)
Malaise, Treatment-Related TEAEs, Any grade (Safety Population, N = 60): 1 (2) number of patients (percent)
Malaise, Treatment-Related TEAEs, Grade 1 (Safety Population, N = 60): 1 (2) number of patients (percent)
Micturition urgency, TEAEs Due to Any Cause, Any grade (Safety Population, N = 60): 1 (2) number of patients (percent)
Micturition urgency, TEAEs Due to Any Cause, Grade 1 (Safety Population, N = 60): 1 (2) number of patients (percent)
Micturition urgency, Treatment-Related TEAEs, Any grade (Safety Population, N = 60): 1 (2) number of patients (percent)
Micturition urgency, Treatment-Related TEAEs, Grade 1 (Safety Population, N = 60): 1 (2) number of patients (percent)
Muscle spasms, TEAEs Due to Any Cause, Any grade (Safety Population, N = 60): 2 (3) number of patients (percent)
Muscle spasms, TEAEs Due to Any Cause, Grade 1 (Safety Population, N = 60): 2 (3) number of patients (percent)
Muscle spasms, Treatment-Related TEAEs, Any grade (Safety Population, N = 60): 1 (2) number of patients (percent)
Muscle spasms, Treatment-Related TEAEs, Grade 1 (Safety Population, N = 60): 1 (2) number of patients (percent)
Myalgia, TEAEs Due to Any Cause, Any grade (Safety Population, N = 60): 1 (2) number of patients (percent)
Myalgia, TEAEs Due to Any Cause, Grade 1 (Safety Population, N = 60): 1 (2) number of patients (percent)
Myalgia, Treatment-Related TEAEs, Any grade (Safety Population, N = 60): 1 (2) number of patients (percent)
Myalgia, Treatment-Related TEAEs, Grade 1 (Safety Population, N = 60): 1 (2) number of patients (percent)
Nasal congestion, TEAEs Due to Any Cause, Any grade (Safety Population, N = 60): 2 (3) number of patients (percent)
Nasal congestion, TEAEs Due to Any Cause, Grade 1 (Safety Population, N = 60): 1 (2) number of patients (percent)
Nasal congestion, TEAEs Due to Any Cause, Grade 2 (Safety Population, N = 60): 1 (2) number of patients (percent)
Nasopharyngitis, TEAEs Due to Any Cause, Any grade (Safety Population, N = 60): 3 (5) number of patients (percent)
Nasopharyngitis, TEAEs Due to Any Cause, Grade 1 (Safety Population, N = 60): 2 (3) number of patients (percent)
Nasopharyngitis, TEAEs Due to Any Cause, Grade 2 (Safety Population, N = 60): 1 (2) number of patients (percent)
Nausea, TEAEs Due to Any Cause, Any grade (Safety Population, N = 60): 21 (35) number of patients (percent)
Nausea, TEAEs Due to Any Cause, Grade 1 (Safety Population, N = 60): 18 (30) number of patients (percent)
Nausea, TEAEs Due to Any Cause, Grade 2 (Safety Population, N = 60): 3 (5) number of patients (percent)
Nausea, Treatment-Related TEAEs, Any grade (Safety Population, N = 60): 18 (30) number of patients (percent)
Nausea, Treatment-Related TEAEs, Grade 1 (Safety Population, N = 60): 16 (27) number of patients (percent)
Nausea, Treatment-Related TEAEs, Grade 2 (Safety Population, N = 60): 2 (3) number of patients (percent)
Peripheral swelling, TEAEs Due to Any Cause, Any grade (Safety Population, N = 60): 3 (5) number of patients (percent)
Peripheral swelling, TEAEs Due to Any Cause, Grade 1 (Safety Population, N = 60): 3 (5) number of patients (percent)
Petechiae, TEAEs Due to Any Cause, Any grade (Safety Population, N = 60): 4 (7) number of patients (percent)
Petechiae, TEAEs Due to Any Cause, Grade 1 (Safety Population, N = 60): 4 (7) number of patients (percent)
Pruritus, TEAEs Due to Any Cause, Any grade (Safety Population, N = 60): 2 (3) number of patients (percent)
Pruritus, TEAEs Due to Any Cause, Grade 1 (Safety Population, N = 60): 1 (2) number of patients (percent)
Pruritus, TEAEs Due to Any Cause, Grade 2 (Safety Population, N = 60): 1 (2) number of patients (percent)
Pruritus, Treatment-Related TEAEs, Any grade (Safety Population, N = 60): 2 (3) number of patients (percent)
Pruritus, Treatment-Related TEAEs, Grade 1 (Safety Population, N = 60): 1 (2) number of patients (percent)
Pruritus, Treatment-Related TEAEs, Grade 2 (Safety Population, N = 60): 1 (2) number of patients (percent)
Purpura, TEAEs Due to Any Cause, Any grade (Safety Population, N = 60): 2 (3) number of patients (percent)
Purpura, TEAEs Due to Any Cause, Grade 1 (Safety Population, N = 60): 2 (3) number of patients (percent)
Rash, TEAEs Due to Any Cause, Any grade (Safety Population, N = 60): 3 (5) number of patients (percent)
Rash, TEAEs Due to Any Cause, Grade 1 (Safety Population, N = 60): 1 (2) number of patients (percent)
Rash, TEAEs Due to Any Cause, Grade 2 (Safety Population, N = 60): 2 (3) number of patients (percent)
Rash, Treatment-Related TEAEs, Any grade (Safety Population, N = 60): 1 (2) number of patients (percent)
Rash, Treatment-Related TEAEs, Grade 1 (Safety Population, N = 60): 1 (2) number of patients (percent)
Thrombocytopenia, TEAEs Due to Any Cause, Any grade (Safety Population, N = 60): 2 (3) number of patients (percent)
Thrombocytopenia, TEAEs Due to Any Cause, Grade 3/4 (Safety Population, N = 60): 2 (3) number of patients (percent)
Upper abdominal pain, TEAEs Due to Any Cause, Any grade (Safety Population, N = 60): 3 (5) number of patients (percent)
Upper abdominal pain, TEAEs Due to Any Cause, Grade 1 (Safety Population, N = 60): 2 (3) number of patients (percent)
Upper abdominal pain, TEAEs Due to Any Cause, Grade 2 (Safety Population, N = 60): 1 (2) number of patients (percent)
Upper abdominal pain, Treatment-Related TEAEs, Any grade (Safety Population, N = 60): 2 (3) number of patients (percent)
Upper abdominal pain, Treatment-Related TEAEs, Grade 1 (Safety Population, N = 60): 1 (2) number of patients (percent)
Upper abdominal pain, Treatment-Related TEAEs, Grade 2 (Safety Population, N = 60): 1 (2) number of patients (percent)
Upper respiratory tract infection, TEAEs Due to Any Cause, Any grade (Safety Population, N = 60): 3 (5) number of patients (percent)
Upper respiratory tract infection, TEAEs Due to Any Cause, Grade 1 (Safety Population, N = 60): 2 (3) number of patients (percent)
Upper respiratory tract infection, TEAEs Due to Any Cause, Grade 2 (Safety Population, N = 60): 1 (2) number of patients (percent)
Urinary tract infection, TEAEs Due to Any Cause, Any grade (Safety Population, N = 60): 2 (3) number of patients (percent)
Urinary tract infection, TEAEs Due to Any Cause, Grade 1 (Safety Population, N = 60): 1 (2) number of patients (percent)
Urinary tract infection, TEAEs Due to Any Cause, Grade 2 (Safety Population, N = 60): 1 (2) number of patients (percent)
Vomiting, TEAEs Due to Any Cause, Any grade (Safety Population, N = 60): 4 (7) number of patients (percent)
Vomiting, TEAEs Due to Any Cause, Grade 1 (Safety Population, N = 60): 3 (5) number of patients (percent)
Vomiting, TEAEs Due to Any Cause, Grade 2 (Safety Population, N = 60): 1 (2) number of patients (percent)
Vomiting, Treatment-Related TEAEs, Any grade (Safety Population, N = 60): 3 (5) number of patients (percent)
Vomiting, Treatment-Related TEAEs, Grade 1 (Safety Population, N = 60): 2 (3) number of patients (percent)
Vomiting, Treatment-Related TEAEs, Grade 2 (Safety Population, N = 60): 1 (2) number of patients (percent)
TEAE resulting in study drug discontinuation: administrative and site conditions (in vivo): 1 (2%) patients (%)
TEAE resulting in study drug discontinuation: gastrointestinal (GI) disorders (in vivo): 4 (7%) patients (%)
TEAE resulting in study drug discontinuation: lymphatic system disorders (in vivo): 2 (4%) patients (%)
treatment-related any-grade TEAE: diarrhea [1]: 32%
treatment-related any-grade TEAE: fatigue [1]: 10%
treatment-related any-grade TEAE: nausea [1]: 30%
patient death (unrelated to treatment, 400 mg bid discontinued on day 8, pre-existing Evans syndrome): 1 patient
